# Experimental data taken from patent publication US20210330611A1, “THERAPY FOR NEUROLOGICAL DISEASES/DISORDERS” (priority 2020, published 2021).
# Counter-ions that a name gives are not always drawn. Like-named read-outs stand apart in the source and are kept apart here. Where a SMILES comes first, the peptide text is derived from it. Bridges are numbered along the chain shown (N, C = ends). [ ]: non-standard residue; d: D form. The star is where a group is joined. Ileψ(thiazoline)Cys = CC[C@H](C)[C@H](N)C1=N[C@H](C(=O)*)CS1; dOrn = NCCC[C@@H](N)C(=O)O
# Assays:
# [1] = test system: fibrin-induced microglia activation; assay: Image-based assay of fibrin-induced microglia activation (HTS and dose response); assay type: cell-based, rat; settings: for IC50 / inhibition at 10 µM: Rattus norvegicus, Microglia; for inhibition at 10 µM: primary microglia HTS, fibrin stimulation, read-out: Fibrin % inhibition
# [2] = test system: LPS-induced microglia activation; assay: Image-based assay of LPS-induced microglia activation (HTS and dose response); assay type: cell-based, rat; settings: Rattus norvegicus, Microglia; for inhibition at 10 µM: primary microglia HTS, LPS stimulation, read-out: LPS % inhibition
# [3] = test system: fibrin- and LPS-induced microglia activation; assay: cells; assay type: cell-based, rat; settings: for inhibition at 10 µM: Rattus norvegicus
# primary rat microglia [4] = settings: rat
# primary rat microglia [5] = settings: rat; remark: listed apart in the source
# in vitro [6] = settings: rat, Cell Toxicity IC50 (uM) [cFib assay]
# in vitro [7] = settings: rat
# primary rat microglia [8] = assay: Cell toxicity (dead cells, size <150 μm2) in LPS assay; settings: for LPS % cell toxicity: primary microglia HTS, LPS stimulation, decreased size (<150 μm^2) as marker of toxicity; for IC50: read-out: Cell Toxicity IC50 (uM) [LPS assay], LPS assay
# primary rat microglia [9] = assay: Cell toxicity (dead cells, size <150 μm2) in coated fibrin (cFib) assay; settings: primary microglia HTS;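 for Fibrin % cell toxicity: share of dead cells sized under 150 µm2 at 10 µM in fibrin-stimulated microglia HTS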
# [10] = 48 h, Table 1, dose response 0.001-20 μM, triplicates, primary rat microglia, 48 h, read-out: Fibrin IC50
# [11] = dose response, fibrin-induced microglia activation, read-out: Fibrin IC50
# [12] = fibrin-induced microglia activation, dose response, read-out: Fibrin IC50 (uM) (Suppl. Table 7)
# [13] = increased cell size (>800 μm^2) as marker of activation
# [14] = 48 h, Table 1, dose response 0.001-20 μM, triplicates, primary rat microglia, 48 h, read-out: LPS IC50
# [15] = 48 h, increased cell size (>800 μm^2) as marker of activation
# [16] = LPS-induced microglia activation, dose response, read-out: LPS IC50 (uM) (Suppl. Table 7)
# [17] = dose response, LPS-induced microglia activation, read-out: LPS IC50
# [18] = HTS of 1907 compounds, quadrant by fibrin and LPS inhibition
# [19] = Microglia, HTS hit classification, read-out: Hit
# [20] = hit classification in microglia HTS, read-out: Cherry-picked Hit (Suppl. Table 7)
# [21] = quadrant by fibrin and LPS inhibition in HTS of 1907 compounds
# [22] = Table 3, read-out: Fibrin IC50 (uM) (Suppl. Table 7)
# [23] = Table 3, read-out: LPS IC50 (uM) (Suppl. Table 7)
# [24] = Microglia, Table 3, read-out: Cherry-picked Hit (Suppl. Table 7)
# [25] = classification by fibrin and LPS inhibition, HTS at 10 μM
# [26] = fibrin stimulation, decreased size (<150 μm^2) as marker of toxicity
# [27] = quadrant by fibrin and LPS inhibition, HTS at 10 μM
# [28] = fibrin assay, dead cells (size <150 μm2)
SMILES,"IC50 [1, 10] [µM]","IC50 [1, 11] [µM]","IC50 [1, 12] [µM]","inhibition at 10 µM [1, 13] [%]","IC50 [2, 14] [µM]","inhibition at 10 µM [2, 15] [%]","IC50 [2, 16] [µM]","IC50 [2, 17] [µM]","Quadrant (FIG. 5b) [3, 18]","inhibition at 10 µM [3, 19] [%]","inhibition at 10 µM [3, 20] [%]","Quadrant (FIG. 5b) ([3]; Table 1, screen at 10 μM)","Quadrant (FIG. 5b) [3, 21]",Fibrin % cell toxicity (primary rat microglia [4]) [%],LPS % cell toxicity (primary rat microglia [5]) [%],IC50 (in vitro [6]; cFib assay) [µM],IC50 (in vitro [7]) [µM],inhibition at 10 µM ([1]; compounds at 10 μM) [%],inhibition at 10 µM ([2]; compounds at 10 μM) [%],LPS % cell toxicity (primary rat microglia [8]) [%],also measured
"COC(=O)C(c1ccccc1)C1CCCCN1 (stereo not shown) [Methylphenidate hydrochloride, reference compound]",> 20,> 20,> 20,81,> 20,75,> 20,> 20,Q2,> 50,> 50,Q2,Q2,2,1,> 20,> 20,–,–,–,–
"CC(C)(C)NC(=O)[C@@H]1C[C@@H]2CCCC[C@@H]2CN1C[C@@H](O)[C@H](Cc1ccccc1)NC(=O)[C@H](CC(N)=O)NC(=O)c1ccc2ccccc2n1 [Saquinavir, reference compound]",> 20,> 20,> 20,51,> 20,56,> 20,> 20,Q2,> 50,> 50,Q2,Q2,1,1,> 20,> 20,–,–,–,–
"C1CCC(C(CC2CCCCN2)C2CCCCC2)CC1 (stereo not shown) [Perhexiline maleate, reference compound]",8,8,8,99,3,123,3,3,Q2,> 50,> 50,Q2,Q2,3,69,20,11,–,–,–,–
"C=C(CC)C(=O)c1ccc(OCC(=O)O)c(Cl)c1Cl [Ethacrynic acid, reference compound]",> 20,> 20,> 20,57,> 20,17,> 20,> 20,Q3,> 50,> 50,Q3,Q3,2,1,> 20,> 20,–,–,–,–
"CC(=O)OCC(=O)[C@@]1(OC(C)=O)[C@@H](C)C[C@H]2[C@@H]3C[C@H](F)C4=CC(=O)C=C[C@]4(C)[C@@]3(F)[C@@H](O)C[C@@]21C [Diflorasone diacetate, reference compound]",0.01,0.01,0.01,76,> 20,39,> 20,> 20,Q3,> 50,–,Q3,Q3,–,0,> 20,> 20,42,31,1,"Fibrin Selectivity [1]: 2188; Fibrin Selectivity (LOG10) [1]: 3.34; IC50 [1, 22]: 0.01 µM; IC50 ([1]; Table 6, read-out: Fibrin IC50 (uM) (Suppl. Table 7)): 0.01 µM; Fibrin Selectivity (LOG10) ([1]; fibrin vs LPS, LOG10, Table 6): 3.34; Fibrin Selectivity ([1]; fibrin vs LPS, Table 6): 2188; IC50 [2, 23]: > 20 µM; IC50 ([2]; Table 6, read-out: LPS IC50 (uM) (Suppl. Table 7)): > 20 µM; inhibition at 10 µM [3, 24]: > 50%; Quadrant (FIG. 5b) ([3]; Table 3, screen at 10 μM): Q3; Quadrant (FIG. 5b) [3, 25]: Q4; Quadrant (FIG. 5b) ([3]; microglia HTS, Table 6): Q3; IC50 (in vitro [6]; Table 3): > 20 µM; IC50 (in vitro [6]; cFib assay, Table 6): > 20 µM; IC50 (primary rat microglia [8]): > 20 µM; IC50 (primary rat microglia [8]; Table 6): > 20 µM; Fibrin % cell toxicity (primary rat microglia [9]; fibrin assay, dead cells (size <150 μm2), compounds at 10 μM): 1%; Fibrin % cell toxicity (primary rat microglia [9]; [26]): 1%"
"C#C[C@]1(O)CC[C@H]2[C@@H]3CCc4cc(O)ccc4[C@H]3CC[C@@]21C [Ethinyl estradiol, reference compound]",> 20,> 20,> 20,58,> 20,37,> 20,> 20,Q3,> 50,> 50,Q3,Q3,1,–,–,> 20,9,5,–,"Quadrant (FIG. 5b) [3, 25]: Q4; IC50 (in vitro [6]): > 20 µM"
"CCN1CCCC1CNC(=O)c1cc(S(=O)(=O)CC)c(N)cc1OC (stereo not shown) [Amisulpride, reference compound]",20,20,20,54,> 20,31,> 20,> 20,Q3,> 50,> 50,Q3,Q3,–,0,> 20,> 20,-5,12,1,"Quadrant (FIG. 5b) [3, 27]: Q4; Fibrin % cell toxicity (primary rat microglia [9]; [28]): 1%; Fibrin % cell toxicity (primary rat microglia [9]; [26]): 2%"
"CC[C@H](C)[C@H](N)C1=N[C@H](C(=O)N[C@@H](CC(C)C)C(=O)N[C@H](CCC(=O)O)C(=O)N[C@H](C(=O)N[C@H]2CCCCNC(=O)[C@H](CC(N)=O)NC(=O)[C@@H](CC(=O)O)NC(=O)[C@H](Cc3cnc[nH]3)NC(=O)[C@@H](Cc3ccccc3)NC(=O)[C@H]([C@@H](C)CC)NC(=O)[C@@H](CCCN)NC2=O)[C@@H](C)CC)CS1 [Bacitracin, reference compound] ({Ileψ(thiazoline)Cys}-L[dE]IK[dOrn]I[dF]H[dD]N; lactam 4-C)",> 20,> 20,> 20,82,> 20,21,> 20,> 20,Q3,> 50,> 50,Q3,Q3,–,1,> 20,> 20,-7,6,0,"Quadrant (FIG. 5b) [3, 27]: Q4; Fibrin % cell toxicity (primary rat microglia [9]; [28]): 0%; Fibrin % cell toxicity (primary rat microglia [9]; [26]): 1%"
"C[C@H]1[C@H](OC(=O)CCC(=O)O)O[C@@H]2O[C@@]3(C)CC[C@H]4[C@H](C)CC[C@@H]1[C@@]24OO3 [Artesunate, reference compound]",7,7,7,63,> 20,20,> 20,> 20,Q3,> 50,–,Q3,Q3,–,0,> 20,> 20,47,7,0,"Fibrin Selectivity [1]: 3; Fibrin Selectivity (LOG10) [1]: 0.45; IC50 [1, 22]: 7 µM; IC50 [2, 23]: > 20 µM; inhibition at 10 µM [3, 24]: > 50%; Quadrant (FIG. 5b) ([3]; Table 3, screen at 10 μM): Q3; Quadrant (FIG. 5b) [3, 27]: Q4; IC50 (in vitro [6]; Table 3): > 20 µM; IC50 (primary rat microglia [8]): > 20 µM; Fibrin % cell toxicity (primary rat microglia [9]; [28]): 1%; Fibrin % cell toxicity (primary rat microglia [9]; [26]): 1%"
